# According to patent US20060122275A1, “Agentfor reducing side effects of diclofenac” (priority 2002, published 2006):
# How the values were obtained:
# [1] = biological target: IP receptor (Homo sapiens, UniProt P43119); details: stated in words, no test described; cited from earlier work
# [2] = biological target: T1, EP3 receptor (Homo sapiens, UniProt P43115); details: stated in words, no test described; cited from earlier work
# T1 sequence (P43115 1-390): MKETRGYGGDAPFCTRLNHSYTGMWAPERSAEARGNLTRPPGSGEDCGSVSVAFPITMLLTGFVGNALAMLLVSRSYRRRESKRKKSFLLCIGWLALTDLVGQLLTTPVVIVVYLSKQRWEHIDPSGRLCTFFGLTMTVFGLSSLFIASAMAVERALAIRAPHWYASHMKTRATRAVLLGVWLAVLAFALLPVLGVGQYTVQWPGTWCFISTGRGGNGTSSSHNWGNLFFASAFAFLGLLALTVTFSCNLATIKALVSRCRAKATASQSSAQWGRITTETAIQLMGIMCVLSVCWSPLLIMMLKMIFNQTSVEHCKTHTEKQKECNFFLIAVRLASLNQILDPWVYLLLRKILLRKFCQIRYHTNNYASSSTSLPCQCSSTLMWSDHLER
# [3] = biological target: T2, EP1 receptor (Homo sapiens, UniProt P34995); details: stated in words, no test described; cited from earlier work
# T2 sequence (P34995 1-402): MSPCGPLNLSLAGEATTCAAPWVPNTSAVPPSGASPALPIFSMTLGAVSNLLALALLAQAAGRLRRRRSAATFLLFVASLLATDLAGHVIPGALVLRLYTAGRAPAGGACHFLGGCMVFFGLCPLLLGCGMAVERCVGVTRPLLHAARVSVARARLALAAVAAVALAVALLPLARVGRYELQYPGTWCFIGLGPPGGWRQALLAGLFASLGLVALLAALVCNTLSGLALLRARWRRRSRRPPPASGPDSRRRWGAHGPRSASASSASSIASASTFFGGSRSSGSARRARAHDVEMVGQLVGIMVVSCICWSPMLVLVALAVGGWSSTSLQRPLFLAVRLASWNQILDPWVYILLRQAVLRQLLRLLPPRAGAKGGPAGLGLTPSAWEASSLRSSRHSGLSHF
# [4] = biological target: EP4 receptor (Homo sapiens, UniProt P35408); details: stated in words, no test described; cited from earlier work
# [5] = test system: glycerol-induced nephropathy; assay: Effect of ornoprostil on glycerol-induced nephropathy; format: in vivo, SPF/Crj line male rats; details: serum 48 hours after glycerol, rats
# Experimental: SPF/Crj line male rats (9 week-old) were measured for their body weight and then divided into groups in such a manner that average of body weights of respective groups became almost uniform. A 50% glycerol solution (medium: physiological saline) (10 ml/kg) was administered by subcutaneous injection to each rat which had been abstained from water for 48 hours (±2 hours) but under feeding, and about 1.5 ml of blood was collected 48 hours thereafter from jugular vein under ether anesthesia. […] Water was provided 2 hours after the glycerol administration. The thus collected blood was centrifuged (about 4° C., 3,000 rpm, 15 minutes) to obtain serum. The thus obtained serum was subjected to the measurement of […] (to be referred to as UN) (urease-G1DH method) and creatinine (to be referred to as CRE) (creatininase-F-DAOS method) using a biochemical automatic analyzer (AU 400 (trade name), Olympus Optical).
# [6] = test system: Mycobacterium butyricum-induced inflammation, squeaking reaction; assay: Analgesic effect in inflammation model (squeaking reaction); format: in vivo, Lew/Crj line male rats; details: OU administered vs OU un-administered group
# Experimental: After measuring body weight of Lew/Crj line male rats, Mycobacterium butyricum cells suspended in liquid paraffin was administered by intracutaneous injection into the sole of left-side hind leg of each animal, under ether anesthesia at a dose of 0.1 ml/animal, thereby inducing inflammation. Also, this day was used as the 1st day of the inflammation induction treatment. […] Also, they were fasted for 16 to 24 hours under free water taking from the previous day of the measurement. […] A rat which was squeaking reaction-negative once or more by the 4 times of judgment after the sample liquid administration was judged analgesic effect-positive, and efficacy ratio (the number of animals having analgesic effect/the number of tested animals) was calculated. In addition, ulcer inhibition ratio was calculated in the same manner as described in (1).
# [7] = test system: gastrointestinal mucous membrane; details: stated in words, no test described; cited from earlier work
# [8] = test system: acid secretion; details: stated in words, no test described; cited from earlier work
# [9] = GC (subcutaneous) + OU (3 μg) oral
# [10] = GC (subcutaneous) + OU (10 μg) oral
# Chain of IP receptor (P43119 whole entry): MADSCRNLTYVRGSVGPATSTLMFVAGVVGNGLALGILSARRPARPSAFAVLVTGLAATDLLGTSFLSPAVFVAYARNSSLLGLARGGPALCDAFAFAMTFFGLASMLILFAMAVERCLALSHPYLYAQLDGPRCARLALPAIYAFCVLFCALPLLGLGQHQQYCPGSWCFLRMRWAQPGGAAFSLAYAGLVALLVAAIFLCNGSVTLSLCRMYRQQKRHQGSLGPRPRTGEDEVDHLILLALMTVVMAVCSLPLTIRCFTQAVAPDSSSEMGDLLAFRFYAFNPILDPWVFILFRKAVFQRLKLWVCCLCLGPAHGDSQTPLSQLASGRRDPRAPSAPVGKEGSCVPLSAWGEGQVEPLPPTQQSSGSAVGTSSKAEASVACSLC
# Chain of EP4 receptor (P35408 whole entry): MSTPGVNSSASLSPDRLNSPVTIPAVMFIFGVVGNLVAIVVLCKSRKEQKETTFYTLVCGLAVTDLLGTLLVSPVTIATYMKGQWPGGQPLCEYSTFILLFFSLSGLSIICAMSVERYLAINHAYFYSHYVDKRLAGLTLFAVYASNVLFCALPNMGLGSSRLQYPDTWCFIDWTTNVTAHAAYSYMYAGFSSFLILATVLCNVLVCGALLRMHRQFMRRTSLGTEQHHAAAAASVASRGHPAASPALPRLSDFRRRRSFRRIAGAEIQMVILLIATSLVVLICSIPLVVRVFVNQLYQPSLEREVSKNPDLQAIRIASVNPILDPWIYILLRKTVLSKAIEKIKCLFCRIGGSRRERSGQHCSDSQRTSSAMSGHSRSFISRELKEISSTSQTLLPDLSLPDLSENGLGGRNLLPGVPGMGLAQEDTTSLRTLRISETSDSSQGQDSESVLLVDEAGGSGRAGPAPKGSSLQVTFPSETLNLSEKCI
SMILES,Affinity for IP receptor [1],Affinity for EP3 receptor [2],Affinity for EP1 receptor [3],Affinity for EP4 receptor [4],"CRE [5, 9]","UN [5, 9]","CRE [5, 10]","UN [5, 10]",Influence of OU administration upon the analgesic effect of NSAID [6],Site protection activity [7],Acid secretion inhibitory activity [8]
CCCCC(C)(O)C/C=C/[C@H]1[C@H](O)CC(=O)[C@@H]1CCCCCCC(=O)O (mixture of isomers) [misoprostol active body],hardly has affinity,strong,weak,strong,–,–,–,–,–,–,–
"CCCC[C@H](C)C[C@H](O)/C=C/[C@H]1[C@H](O)CC(=O)[C@@H]1CC(=O)CCCCC(=O)OC [ornoprostil, 17S,20-dimethyl-6-oxo-prostaglandin E1 methyl ester]",–,–,–,–,1.38 mg/dL,89.7 mg/dL,1.03 mg/dL,79.9 mg/dL,did not exert influence,strong,weak
